{"source": "patent US8115060B2", "about": "“Means and methods of controlling plant seed germination” (Applied Biotechnology Institute, Inc., priority 2008, dated 2012)", "key": {"[1]": {"test_system": "seeds from transformation events containing the avidin gene", "assay": "Germination of T1 seeds containing the avidin gene, imbibed with and without biotin", "assay_type": "in vivo, maize"}, "non-transformed seeds": {"test_system": "non-transformed seeds", "assay": "Germination of non-transformed seeds imbibed in water with biotin", "details": "biotin in water used for imbibing", "excerpt": "Since our T0 plants were crossed with non-transgenic maize in the greenhouse, it is expected that half of the seeds in our initial transformed plants (T1 seed) should not carry the avidin gene."}, "[2]": {"test_system": "corn plants expressing avidin with a constitutive promoter targeted to the cell wall", "assay": "Reversal of avidin-induced male sterility by application of biotin to corn plants", "assay_type": "in vivo", "details": "biotin applied to plants; unpublished results", "excerpt": "Biotin is a B vitamin and provides a safe chemical for seed treatment. In addition, biotin is inexpensive and readily available. […] When avidin was expressed in corn plants with a constitutive promoter targeted to the cell wall, male sterility occurred (14)."}}, "data": [{"smiles": "O=C(O)CCCC[C@@H]1SC[C@@H]2NC(=O)N[C@@H]21", "note": "[biotin]", "values": [{"measurement": "number of seeds that failed to germinate", "setting": "[1]; 20 seeds from a single ear of transformed corn imbibed with biotin, after one week, best result", "result": "one"}, {"measurement": "change in number of non germinating seeds when biotin applied during imbibing", "setting": "[1]; several experiments testing 240 seeds, compared with water", "result": "cut in half"}, {"measurement": "biotin concentration tolerated with no detrimental signs of any effect on germination", "setting": "non-transformed seeds", "result": "up to 10 μg/ml"}, {"measurement": "reversal of male sterility caused by avidin", "setting": "[2]", "result": "able to reverse the effect of avidin and render the plants fertile"}]}]}
